Test results taken from patent US20260063641A1, “COMPOSITIONS AND METHODS FOR LABELING AND DETECTING BINDING PARTNERS” (UNIVERSITY OF UTAH RESEARCH FOUNDATION, priority 2022, published 2026).
Entries after “also recorded” stand apart in the source; their conditions may differ.

Assays:
Type in all cases: cell-based
MEK1 = biological target: T1, MEK1 (Homo sapiens, UniProt Q02750); assay: BioTAC proximity labeling, streptavidin enrichment and immunoblot for MEK1; conditions: HEK293 with miniTurbo-FKBP12F36V, 100 μM biotin, dose and time point optimization
T1 construct: Immunoblot analysis of MEK1/2 enrichment following treatment of HEK293 cells; host or cells: HEK293 transiently transfected with the BioTAC plasmid
Experimental: (§1) Bifunctional trametinib analogue JWJ-01-280/Cpd2 was synthesized, with a linker attachment informed by a reported trametinib-derived BRET probe named Tram-bo (FIG. 3B). […] The ability of the BioTAC system to detect both known interactors of trametinib was evaluated by Western blot, as described above.
(§2) 0.6 million HEK293 cells were plated into wells containing 1 mL of complete media (DMEM, 10% FBS, 1% pen/strep) and incubated overnight. Cells were transiently transfected with 100 μL of OptiMEM media containing 1 μg of BioTAC plasmid and 3 μL of TransIT-2020 transfection reagent (Mirus, MIR5400) for 24 hr. Following a media change, cells were pre-treated with parental molecules or DMSO for 10 min, then treated with bifunctional compound for 10 min, and finally labeled in 100 μM biotin for the indicated time. Cells were washed twice with DPBS then harvested into 1.5 mL tubes. […] Protein concentration was determined by BCA assay (Thermo, 23225), then 100 ug protein was rotated overnight at 4° C. with 8 μL of streptavidin magnetic beads (Thermo, 88817) that had been prewashed twice in RIPA lysis buffer. […]

[1] = biological target: T2, MEK1:trametinib:KSR1 complex (Homo sapiens, UniProt Q02750); assay: BioTAC detection of molecular glue complex by immunoblot of MEK1 and KSR1; conditions: 4 hr treatment with 1 μM, 100 μM biotin
T2 construct: Immunoblot analysis of MEK1 and KSR1 following treatment of HEK293 cells; host or cells: HEK293 transiently transfected with the BioTAC plasmid
Experimental: as §1, §2

NLuc-FKBP12F36V = biological target: T3, NLuc-FKBP12F36V (Homo sapiens, UniProt P62942, F37V); assay: FKBP12F36V cellular target engagement assay (competition with dTAG-13, NLuc/FLuc signal); conditions: for competitive displacement of dTAG-13 (FKBP12F36V cellular target engagement): mean±S.D. of n=3 technical replicates, FIG. 4D-F
T3 construct: expressed in transfected cells
From the text: This method, named the biotin targeting chimera (BioTAC) system, uses bifunctional molecules composed of a compound-of-interest linked to selective FKBP12F36V recruiter orthoAP1867, to recruit a ligandable proximity labeling enzyme (mTurbo-FKBP12F36V) to compound-bound complexes enabling their biotinylation and subsequent affinity purification (FIG. TA-B). To benchmark the BioTAC system for accurate detection of the direct targets of ligands the well-characterized BET protein inhibitor (+)-JQ1, which potently binds BRD2, BRD3 and BRD4 (as well as the testes-specific BET protein BRDT), was selected as a test case. A series of bifunctional molecules consisting of (+)-JQ1 conjugated to […] were synthesized via a variable linker (FIG. 1B, FIG. 4A-C). (+)-JQ1-bifunctional molecule cell permeability was measured using an FKBP12F36V cellular target engagement assay adapted from Nabet et. al Nat Commun 11, 4687 (2020). Briefly, FKBP12F36V binding molecules compete with an FKBP12F36V targeting PROTAC (dTAG-13), for NLuc-FKBP12F36V occupancy, rescuing degradation and resulting in an increase in NLuc/FLuc (control) signal relative to DMSO-treated cells. All synthesized compounds were comparably cell permeable (FIG. 4D-E).

BRD4 = biological target: T4, BRD4 (Homo sapiens, UniProt O60885); assay: BioTAC proximity labeling, streptavidin pulldown and western blot for BRD4; conditions: variable concentrations of free (+)-JQ1 against 1 μM bifunctional (+)-JQ1 recruiters, all timepoints
T4 construct: host or cells: HEK293 transiently transfected with the BioTAC plasmid
Experimental: Next bifunctional molecule guided-proximity labeling experiments were performed using validated reagents. HEK293 cells transiently transfected with mTurbo-FKBP12F36V were treated with 100 μM biotin, 1 μM bifunctional (+)-JQ1 recruiters, and variable concentrations of free (+)-JQ1 to off-compete the bifunctional molecule and rescue biotinylation. Biotinylated proteins were isolated from cell lysates via streptavidin bead pulldown and analyzed by western blot for BRD4, a primary target of (+)-JQ1.
as §2

T3 sequence (P62942 2-108 F37V limits assumed): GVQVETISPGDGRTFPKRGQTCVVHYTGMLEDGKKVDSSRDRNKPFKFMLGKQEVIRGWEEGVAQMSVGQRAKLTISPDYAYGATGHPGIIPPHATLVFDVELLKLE
T2 sequence (Q02750 whole entry, one chain of several): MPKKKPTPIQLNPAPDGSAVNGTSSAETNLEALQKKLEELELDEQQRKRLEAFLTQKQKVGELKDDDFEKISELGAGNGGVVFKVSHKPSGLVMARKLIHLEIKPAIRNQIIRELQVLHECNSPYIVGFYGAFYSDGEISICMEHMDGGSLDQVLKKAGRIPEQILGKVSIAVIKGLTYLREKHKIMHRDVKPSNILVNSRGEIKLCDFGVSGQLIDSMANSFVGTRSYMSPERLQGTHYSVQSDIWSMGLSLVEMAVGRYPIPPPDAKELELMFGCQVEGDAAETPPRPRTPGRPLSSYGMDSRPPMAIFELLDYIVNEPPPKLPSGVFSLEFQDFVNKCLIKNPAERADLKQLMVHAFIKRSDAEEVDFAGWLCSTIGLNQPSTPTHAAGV
T1 sequence (Q02750 whole entry): as the sequence (Q02750 whole entry, one chain of several) above
T1 sequence (as listed by the source partner): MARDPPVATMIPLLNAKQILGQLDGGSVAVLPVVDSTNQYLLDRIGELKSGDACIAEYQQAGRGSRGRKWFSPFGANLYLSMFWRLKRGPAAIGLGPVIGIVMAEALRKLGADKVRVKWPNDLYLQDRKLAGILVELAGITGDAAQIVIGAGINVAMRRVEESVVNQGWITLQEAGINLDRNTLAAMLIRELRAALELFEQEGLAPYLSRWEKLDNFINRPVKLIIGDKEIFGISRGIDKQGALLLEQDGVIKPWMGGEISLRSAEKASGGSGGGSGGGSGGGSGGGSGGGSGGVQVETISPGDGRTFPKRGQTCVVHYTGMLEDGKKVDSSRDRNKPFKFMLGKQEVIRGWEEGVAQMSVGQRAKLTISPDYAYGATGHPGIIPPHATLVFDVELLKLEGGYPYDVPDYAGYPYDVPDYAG

CC[C@H](C(=O)N1CCCC[C@H]1C(=O)O[C@H](CCc1ccc(OC)c(OC)c1)c1ccccc1OCC(=O)NCCOCCOCCC(=O)Nc1cccc(-n2c(=O)n(C3CC3)c(=O)c3c(Nc4ccc(I)cc4F)n(C)c(=O)c(C)c32)c1)c1cc(OC)c(OC)c(OC)c1 [Cpd2, (R)-1-(2-(2-((2-(2-(3-((3-(3-Cyclopropyl-5-((2-fluoro-4-iodophenyl)amino)-6,8-dimethyl-2,4,7-trioxo-3,4,6,7-tetrahydropyrido[4,3-d]pyrimidin-1(2H)-yl)phenyl)amino)-3-oxopropoxy)ethoxy)ethyl)amino)-2-oxoethoxy)phenyl)-3-(3,4-dimethoxyphenyl)propyl (S)-1-((S)-2-(3,4,5-trimethoxyphenyl)butanoyl)piperidine-2-carboxylate]
MEK1 labelling (immunoblot) (MEK1): efficient MEK1 labelling
detection/enrichment of MEK1:trametinib:KSR1 complex (immunoblot of MEK1 and KSR1) [1]: detected; also recorded: successful enrichment and competition with trametinib
cell permeability measured by FKBP12F36V cellular target engagement assay (NLuc-FKBP12F36V; rescue of NLuc-FKBP12F36V degradation by dTAG-13, relative to DMSO): less cell permeable than the (+)-JQ1 derivatives

CC[C@H](C(=O)N1CCCC[C@H]1C(=O)O[C@H](CCc1ccc(OC)c(OC)c1)c1ccccc1OCC(=O)NCCOCCOCCNC(=O)C[C@@H]1N=C(c2ccc(Cl)cc2)c2c(sc(C)c2C)-n2c(C)nnc21)c1cc(OC)c(OC)c(OC)c1 [JWJ-01-236, (R)-1-(2-((14-((S)-4-(4-Chlorophenyl)-2,3,9-trimethyl-6H-thieno[3,2-f][1,2,4]triazolo[4,3-a][1,4]diazepin-6-yl)-2,13-dioxo-6,9-dioxa-3,12-diazatetradecyl)oxy)phenyl)-3-(3,4-dimethoxyphenyl)propyl (S)-1-((S)-2-(3,4,5-trimethoxyphenyl)butanoyl)piperidine-2-carboxylate]
competitive displacement of dTAG-13 (FKBP12F36V cellular target engagement) (NLuc-FKBP12F36V): competitive displacement of dTAG-13

CC[C@H](C(=O)N1CCCC[C@H]1C(=O)O[C@H](CCc1ccc(OC)c(OC)c1)c1ccccc1OCC(=O)NCCCCCCCCNC(=O)C[C@@H]1N=C(c2ccc(Cl)cc2)c2c(sc(C)c2C)-n2c(C)nnc21)c1cc(OC)c(OC)c(OC)c1 [JWJ-01-255, (R)-1-(2-(2-((8-(2-((S)-4-(4-Chlorophenyl)-2,3,9-trimethyl-6H-thieno[3,2-f][1,2,4]triazolo[4,3-a][1,4]diazepin-6-yl)acetamido)octyl)amino)-2-oxoethoxy)phenyl)-3-(3,4-dimethoxyphenyl)propyl (S)-1-((S)-2-(3,4,5-trimethoxyphenyl)butanoyl)piperidine-2-carboxylate]
competitive displacement of dTAG-13 (FKBP12F36V cellular target engagement) (NLuc-FKBP12F36V): competitive displacement of dTAG-13

(+)-JQ1 [reference compound]
BRD4 pulldown in presence of free competitor (BRD4): dose dependent decrease in BRD4 pulldown
